Assay results published in PubChem BioAssay (NCI).
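Step 1: Grow cells in 96-well plates. Step 2: Expose to compound for 48 hours at 5 concentrations. Step 3: Interpolate endpoints linearly; if unreached, use highest concentration. GI50 is the concentration that inhibits growth by half. TGI denotes the concentration required for complete inhibition of growth.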

Legend:
Test in all cases: NCI tumour cell line growth inhibition, 48 h
[1] = test system: SF-539 CNS
[2] = test system: SW-620 colon
[3] = test system: SK-MEL-5 melanoma
[4] = test system: SK-MEL-28 melanoma
[5] = test system: U251 CNS
[6] = test system: IGROV1 ovarian
[7] = test system: K-562 leukemia
[8] = test system: MDA-MB-231 breast
[9] = test system: SF-295 CNS
[10] = test system: SNB-19 CNS
[11] = test system: SK-OV-3 ovarian
[12] = test system: MDA-MB-435
[13] = test system: SK-MEL-2 melanoma
[14] = test system: SR leukemia
[15] = test system: NCI-H522 lung
[16] = test system: LOX IMVI melanoma
[17] = test system: HCT-15 colon
[18] = test system: CAKI-1 renal
[19] = test system: UACC-257 melanoma
[20] = test system: SNB-75 CNS
[21] = test system: EKVX NSCLC
[22] = test system: A549 NSCLC
[23] = test system: A498 renal
[24] = test system: CCRF-CEM leukemia
[25] = test system: NCI-H23 lung
[26] = test system: ACHN renal
[27] = test system: HOP-92 NSCLC
[28] = test system: 786-0 renal
[29] = test system: HT29 colon
[30] = test system: MOLT-4 leukemia
[31] = test system: NCI-H460 lung
[32] = test system: SN12C renal
[33] = test system: RPMI-8226 leukemia
[34] = test system: MCF7 breast
[35] = test system: UACC-62 melanoma
[36] = test system: NCI/ADR-RES ovarian
[37] = test system: M14 melanoma
[38] = test system: NCI-H226 lung
[39] = test system: MALME-3M melanoma
[40] = test system: SF-268 CNS
[41] = test system: OVCAR-4 ovarian
[42] = test system: UO-31 renal
[43] = test system: HL-60(TB) leukemia
[44] = test system: TK-10 renal
[45] = test system: RXF 393 renal
[46] = test system: PC-3 prostate
[47] = test system: HS 578T breast
[48] = test system: OVCAR-5 ovarian
[49] = test system: DU-145 prostate
[50] = test system: KM12 colon
[51] = test system: BT-549 breast
[52] = test system: HOP-62 NSCLC
[53] = test system: HCC-2998 colon
[54] = test system: OVCAR-8 ovarian
[55] = test system: HCT-116 colon

In the case of `COc1ccccc1NC1=C(Cl)C(=O)c2nc(C)ccc2C1=O`, the GI50 [1] is reported as 1680 nM, the TGI [1] is reported as 3130 nM and the GI50 [2] is reported as 1840 nM. It also gave a TGI [2] of 3730 nM, a GI50 [3] of 1750 nM and a TGI [3] of 3170 nM. For the same compound, the GI50 [4] was 1850 nM, the TGI [4] was 3340 nM and the GI50 [5] was 1850 nM. For the same compound, the TGI [5] was 3730 nM, the GI50 [6] was 1460 nM and the TGI [6] was 2920 nM. For the same compound, the GI50 [7] was 290 nM, the TGI [7] was 2940 nM and the GI50 [8] was 1190 nM. The TGI [8] was 2530 nM, the GI50 [9] was 1850 nM and the TGI [9] was 3420 nM. It also gave a GI50 [10] of 1810 nM, a TGI [10] of 3720 nM and a GI50 [11] of 12600 nM. For the same compound, the TGI [11] was 27500 nM, the GI50 [12] was 1700 nM and the TGI [12] was 3110 nM. For the same compound, the GI50 [13] was 1810 nM, the TGI [13] was 3350 nM and the GI50 [14] was 794 nM. For the same compound, the TGI [14] was 4250 nM, the GI50 [15] was 1810 nM and the TGI [15] was 3360 nM. It also gave a GI50 [16] of 952 nM, a TGI [16] of 2360 nM and a GI50 [17] of 1330 nM. The TGI [17] was 3020 nM, the GI50 [18] was 1500 nM and the TGI [18] was 2870 nM. For the same compound, the GI50 [19] was 1570 nM, the TGI [19] was 3090 nM and the GI50 [20] was 1500 nM. The TGI [20] was 2840 nM, the GI50 [21] was 1610 nM and the TGI [21] was 3050 nM. The GI50 [22] was 2440 nM, the TGI [22] was 6240 nM and the GI50 [23] was 1900 nM. For the same compound, the TGI [23] was 4600 nM, the GI50 [24] was 1940 nM and the TGI [24] was 8210 nM. It also gave a GI50 [25] of 1470 nM, a TGI [25] of 3310 nM and a GI50 [26] of 1470 nM. It also gave a TGI [26] of 2800 nM, a GI50 [27] of 1850 nM and a TGI [27] of 3300 nM. It also gave a GI50 [28] of 1910 nM, a TGI [28] of 3610 nM and a GI50 [29] of 2130 nM. For the same compound, the TGI [29] was 4490 nM, the GI50 [30] was 2270 nM and the TGI [30] was 8600 nM. For the same compound, the GI50 [31] was 3220 nM, the TGI [31] was 12000 nM and the GI50 [32] was 1700 nM. For the same compound, the TGI [32] was 3290 nM, the GI50 [33] was 1570 nM and the TGI [33] was 4610 nM. It also gave a GI50 [34] of 1780 nM, a TGI [34] of 4490 nM and a GI50 [35] of 1820 nM. For the same compound, the TGI [35] was 3370 nM, the GI50 [36] was 2030 nM and the TGI [36] was 5160 nM. The GI50 [37] was 1820 nM, the TGI [37] was 3810 nM and the GI50 [38] was 1930 nM. For the same compound, the TGI [38] was 4520 nM, the GI50 [39] was 1710 nM and the TGI [39] was 3190 nM. It also gave a GI50 [40] of 1530 nM, a TGI [40] of 3050 nM and a GI50 [41] of 1210 nM. The TGI [41] was 2490 nM, the GI50 [42] was 1420 nM and the TGI [42] was 2730 nM. For the same compound, the GI50 [43] was 1370 nM, the TGI [43] was 3520 nM and the GI50 [44] was 2340 nM. It also gave a TGI [44] of 3860 nM, a GI50 [45] of 1420 nM and a TGI [45] of 2760 nM. It also gave a GI50 [46] of 1210 nM, a TGI [46] of 2580 nM and a GI50 [47] of 2270 nM. For the same compound, the TGI [47] was 5640 nM, the GI50 [48] was 1860 nM and the TGI [48] was 3420 nM. The GI50 [49] was 1720 nM, the TGI [49] was 3110 nM and the GI50 [50] was 1490 nM. It also gave a TGI [50] of 3080 nM, a GI50 [51] of 1720 nM and a TGI [51] of 3270 nM. The GI50 [52] was 2410 nM, the TGI [52] was 6980 nM and the GI50 [53] was 1870 nM. The TGI [53] was 3460 nM, the GI50 [54] was 1610 nM and the TGI [54] was 3250 nM. The GI50 [55] was 1530 nM and the TGI [55] was 4160 nM.
